Results from patent US12129255B2, “Pyrido [2,3-d]pyrimidine derivatives as inhibitors of human immunodeficiency virus replication” (VIIV HEALTHCARE UK (No. 5) LIMITED, priority 2019, dated 2024).

System: CYP2B6
Test: Cytochrome P450 (CYP2B6) induction in cryopreserved human hepatocytes, mRNA fold-change method
Format: in vitro ADME
Conditions: hepatocytes from three donors, 0.12 to 30 μM, 48 hours; Example 1 all three donors, Example 60.2 2 of 3 donors
Experimental: Following the guidance of the FDA (“In Vitro Metabolism- and Transporter-Mediated Drug-Drug Interaction Studies Guidance for Industry”), the potential of Example 1 and Example 60.2 to induce CYP2B6 expression was tested using hepatocytes from the same three individual donors (rather than pooled donors), and changes in enzyme mRNA levels were evaluated using the “fold-change method”. In this test a fold-change in mRNA levels less than 2-fold is considered a negative finding, while a change 2-fold is considered a positive finding.
Compounds were tested in a CYP induction assay using inducible cryopreserved human primary hepatocytes from three donors to determine the potential to cause induction (as measured by an increase in mRNA transcription) of CYP2B6. […] At the end of the incubation, the integrity of cell monolayers, cell density and viability were evaluated to assess cytotoxicity effects. […] Samples were then used in reverse transcription polymerase chain reactions (RT-PCR) to quantify the amount of specific mRNA species encoding the human CYP2B6 gene.
The induction potential of test compounds and controls was compared to known CYP2B6 inducer Phenobarbital (1000 μM). The results of this assay are expressed as fold induction. […] The cytotoxicity was also assessed in parallel to avoid false positive CYP induction results due to cytotoxicity. […]

In the case of `Cn1nc(NS(C)(=O)=O)c2c(Cl)ccc(-n3c([C@H](Cc4cc(F)cc(F)c4)NC(=O)Cn4nc(C(F)F)c5c4C(F)(F)[C@@H]4C[C@H]54)nc4nc(OCCC(F)(F)F)ccc4c3=O)c21` (atropisomer, axis not shown; (P)) [Example 1, N—((S)-1-((3P)-3-(4-chloro-1-methyl-3-(methylsulfonamido)-1H-indazol-7-yl)-4-oxo-7-(3,3,3-trifluoropropoxy)-3,4-dihydropyrido[2,3-d]pyrimidin-2-yl)-2-(3,5-difluorophenyl)ethyl)-2-((3bS,4aR)-3-(difluoromethyl)-5,5-difluoro-3b,4,4a,5-tetrahydro-1H-cyclopropa[3,4]cyclopenta[1,2-c]pyrazol-1-yl)acetamide], the “CYP2B6 induction finding (mRNA fold-change method)” value is reported as “negative finding (a fold-change in mRNA levels less than 2-fold is considered a negative finding)”.
